ChEMBL document CHEMBL3272027, “Chemoimmunotherapy of cancer” (1977)

Experiments:
Assay type in all cases: functional
P388 [1] = experiment: In vivo antitumor activity against mouse P388 cells in 3PS31 test system at 12.5 mg/kg administered on day 1, 5 and 9 relative to control
P388 [2] = experiment: In vivo antitumor activity against mouse P388 cells in 3PS31 test system at 25 mg/kg administered on day 1, 5 and 9 relative to control
P388 [3] = experiment: In vivo antitumor activity against mouse P388 cells in 3PS31 test system at 50 mg/kg administered on day 1, 5 and 9 relative to control
P388 [4] = experiment: In vivo antitumor activity against mouse P388 cells in 3PS31 test system at 75 mg/kg administered on day 1, 5 and 9 relative to control
P388 [5] = experiment: In vivo antitumor activity against mouse P388 cells in 3PS31 test system at 6.25 mg/kg administered on day 1, 5 and 9 relative to control

Row | Structure (SMILES) | T/C (P388 [1]) [%] | T/C (P388 [2]) [%] | T/C (P388 [3]) [%] | T/C (P388 [4]) [%] | T/C (P388 [5]) [%]
1 | O=C(O)c1cc([N+](=O)[O-])cc([N+](=O)[O-])c1NCCSCCCl | 102 | 111 | 106 | – | –
2 | O=[N+]([O-])c1cc([N+](=O)[O-])c(NCCSCCCl)c(S(=O)(=O)O)c1 | 111 | 124 | 124 | 118 | –
3 | O=[N+]([O-])c1cc([N+](=O)[O-])c(NCCCSCCCl)c(S(=O)(=O)O)c1 | 132 | 136 | 128 | – | 111
